# Source: patent US20230159583A1, “COMPOUND FOR TREATING GOUT, PREPARATION METHOD THEREFOR, AND USE THEREOF” (Huazhong Pharmaceutical Co., Ltd., priority 2020, published 2023)
# Where two headings read alike, the source gives them in different places.
# What was measured:
# Format in all cases: in vivo
# [1] = tested on: rat paw swelling induced by monosodium urate (MSU); test: rat paw swelling model induced by monosodium urate (MSU); settings: for inhibition in vivo at 90 mg/kg / inhibition in vivo at 0.36 mg/kg / inhibition in vivo at 1.8 mg/kg / inhibition in vivo at 9 mg/kg / change in vivo at 90 mg/kg: Rattus norvegicus, po; for inhibition in vivo at 90 mg/kg / inhibition in vivo at 0.36 mg/kg / inhibition in vivo at 1.8 mg/kg / inhibition in vivo at 9 mg/kg: 1 h, read-out: Swelling inhibition rate; for inhibition in vivo at 0.36 mg/kg: dosage 0.36 mg/kg; for inhibition in vivo at 1.8 mg/kg: dosage 1.8 mg/kg; for inhibition in vivo at 9 mg/kg: dosage 9 mg/kg; for change in vivo at 90 mg/kg: read-out: Swelling degree; for Mean volume of paw after administration: 1 h after onset of inflammation (50 μL 2% MSU)
# Text: Gout is a disease unique to human, and gouty arthritis is an inflammatory reaction caused by the deposition of monosodium urate (MSU) in local joint tissues. Since purine metabolism pathways in some mammals such as mice and rabbits are different from those in humans, it is impossible to construct a gouty arthritis model by the method of interfering with purine metabolism disorders, so the most direct method for causing gouty arthritis is to directly inject MSU into the joint cavity of the model animal. The model is only used for simulating local joint inflammation of gout, is suitable for observation of local arthritis symptoms, is a common method for screening anti-inflammatory effects of gout drugs at present, and has the advantages of stability, easy operation and the like. (Reference: Li Na, Hua Long, and Yuan Hui. Research progress of gout animal models [J]. Medical theory and practice, 2016(24).
# The anti-gout effect of the compound prepared in the above Example was detected by using a rat paw swelling model induced by monosodium urate (MSU), and the control sample was methylprednisolone.
# Experimental method: MSU was used as an inflammatory agent, injected subcutaneously into the hind paws of rats to cause paw swelling, and then the volume of the paws was measured, and the swelling rates and swelling inhibition rates of the treatment group and the control group were compared. On the day of the experiment, the volume of right hind paw (ml) of each rat was measured firstly, and then after the onset of inflammation, the volume of right hind paw was measured so that the difference of volume of paw before and after inflammation was swelling degree, and the swelling inhibition rate of paw (swelling inhibition rate %=(C−T)/C*100%); C=swelling rate of the control group %, and T=swelling rate of the treatment group) was calculated. This method is one of the commonly used methods for screening anti-inflammatory effects of gout drugs, and the model is stable and easy to operate.
# (2) One week before the subcutaneous injection of MSU into the feet and soles of the rats, the rats were given different doses of the test drugs, and the drugs were given by gavage once a day, for seven consecutive days. The circumference of the right hind paw was marked and measured before the last administration, and the average value of the two measurements was taken as the standard. 1 h after the last administration, animals in other groups were given 50 μL of 2% MSU in addition to the blank control group, and the paw circumference was measured 1 h after the onset of inflammation. […]
# [2] = tested on: carrageenan-induced mouse paw swelling; test: carrageenan-induced mouse paw swelling model; settings: for Circumference of the paw after administration: 180 min after onset of inflammation (0.5% carrageenan); for inhibition in vivo at 0.26 mg/kg / inhibition in vivo at 13 mg/kg / inhibition in vivo at 130 mg/kg / change in vivo at 130 mg/kg: Mus musculus, po, 3 h; for inhibition in vivo at 0.26 mg/kg: dosage 0.26 mg/kg; for inhibition in vivo at 0.26 mg/kg / inhibition in vivo at 13 mg/kg / inhibition in vivo at 130 mg/kg: read-out: Swelling inhibition rate; for inhibition in vivo at 13 mg/kg: dosage 13 mg/kg; for change in vivo at 130 mg/kg: read-out: Swelling degree
# Method: The anti-inflammatory effects of the compounds prepared in the above Examples were detected using a carrageenan-induced mouse paw swelling model, and the control sample was methylprednisolone:
# Carrageenan-induced mouse paw swelling model is a classical acute inflammation model commonly used for evaluating or screening anti-inflammatory effects of drugs. When carrageenan is injected into the paw of mice, a series of reactions similar to human acute inflammation such as local capillary dilatation, increased vascular permeability, exudation and edema can be caused, so the model can be widely used in the evaluation of new drugs.
# Reference for experimental method: Yang Huan, Cheng Xiao, Wang Yuehua, Du Guanhua. Effects of esculin on the swelling of toes and inflammation induced by carrageenan in mice [J]. Chinese Journal of New Drugs, 2016(25):2322.
# On the day of the experiment, the circumference of right hind paw (cm) of each mouse was measured firstly, and then, after the onset of inflammation, the circumference of right hind paw was measured so that the difference of the circumferences of the paws before and after inflammation was swelling degree, and the swelling inhibition rate of paw (swelling inhibition rate %=(C−T)/C*100%); C=swelling rate of the control group %, and T=swelling rate of the treatment group) was calculated.
# (2) Gavage administration was performed once a day for seven consecutive days. The circumference of the right hind paw was marked and measured before the last administration, and the average value of the two measurements was taken as the standard. 30 min after the last administration, 20 μL/mice of 0.5% carrageenan was injected into the right hind ankle of the mice to induce inflammation, and the circumference of paw was measured 180 min after the onset of inflammation. […]
# [3] = tested on: ICR mice; settings: p.o.
# Method: The experiment was designed according to the “Technical Guideline for Acute Toxicity Test of Chemical Drugs” issued by the State Food and Drug Administration in March 2005. The doses administered were 4 g/kg, 4.91 g/kg, 6.14 g/kg, 7.68 g/kg, 9.6 g/kg, 12 g/kg, and 15 g/kg (the dose could be adjusted according to the actual test results), 12 ICR mice per dose group. If the administration volume is greater than 0.5 ml, it is better to perform the drug administration in two or more times (Note: according to the national standard GB 15193.3-2014, if multiple drug administrations are required, the time interval should be 4 h to 6 h each time, and the patient should be fasted on the day before drug administration).
# [4] = SD rats, 90 mg/kg by gavage once a day for seven days, 1 h after onset of inflammation
# [5] = rat, MSU-induced paw swelling, dosage 90 mg/kg
# [6] = SD rats, 90 mg/kg by gavage once a day for seven days
# [7] = ICR mice, 130 mg/kg by gavage once a day for seven days, 180 min after onset of inflammation
# [8] = ICR mice, 130 mg/kg by gavage once a day for seven days
# [9] = mouse, carrageenan-induced paw swelling
# [10] = mouse, carrageenan-induced paw swelling, dosage 130 mg/kg
Compound,"inhibition in vivo at 90 mg/kg [1, 4] [%]","inhibition in vivo at 0.36 mg/kg ([1]; rat, MSU-induced paw swelling) [%]","inhibition in vivo at 1.8 mg/kg ([1]; rat, MSU-induced paw swelling) [%]","inhibition in vivo at 9 mg/kg ([1]; rat, MSU-induced paw swelling) [%]","inhibition in vivo at 90 mg/kg [1, 5] [%]","change in vivo at 90 mg/kg [1, 4] [%]","Swelling value [1, 4] [mL]","Mean volume of paw after administration [1, 6] [mL]","Swelling value [2, 7] [cm]","Circumference of the paw after administration [2, 8] [cm]","inhibition in vivo at 0.26 mg/kg [2, 9] [%]","inhibition in vivo at 13 mg/kg [2, 9] [%]","inhibition in vivo at 130 mg/kg [2, 10] [%]","change in vivo at 130 mg/kg [2, 7] [%]","inhibition in vivo at 130 mg/kg [2, 7] [%]",Mortality ([3]; 4 g/kg),Mortality ([3]; 4.91 g/kg),Mortality ([3]; 6.14 g/kg),Mortality ([3]; 7.68 g/kg),Mortality ([3]; 9.6 g/kg),further results
C[C@@H]1C[C@H]2[C@@H]3CCC4=CC(=NO)C=C[C@]4(C)[C@H]3[C@@H](O)C[C@]2(C)[C@H]1/C(CO)=N/O [Example 10],68.9,9.21,32.1,51.2,65.2,102,1.24,2.45,0.11,1.58,8.12,30.9,62.4,7.48,61.3,0/12,0/12,1/12,1/12,3/12,Mortality ([3]; 12 g/kg): 4/12; Mortality ([3]; 15 g/kg): 5/12
CCON=C1C=C[C@@]2(C)C(=C1)CC[C@@H]1[C@@H]2[C@@H](O)C[C@@]2(C)[C@H]1C[C@@H](C)[C@]2(O)/C(COC(C)=O)=N/OCC [Example 11],64.7,10.2,35.2,49,67.5,116,1.42,2.64,0.1,1.53,15.5,35.8,68.1,6.99,63.9,0/12,0/12,0/12,0/12,0/12,Mortality ([3]; 12 g/kg): 0/12; Mortality ([3]; 15 g/kg): 0/12
"CC(=O)OC/C(=N\O)[C@@]1(O)CC[C@H]2[C@@H]3C[C@H](C)C4=CC(=NO)C=C[C@]4(C)[C@H]3[C@@H](O)C[C@@]21C [Example 2, (2E)-2-((6S,8S,9S,10R,11S,13S,14S,17R)-11,17-dihydroxy-3-(hydroxyimino)-6,10,13-trimethyl-6,7,8,9,10,11,12,13,14,15,16,17-dodecahydro-3H-cyclopentane[α]phenanthrene-17-yl)-2-(hydroxyimino)ethyl acetate]",99,15.1,32.1,52.1,98.2,3.23,0.04,1.28,0.01,1.43,15.1,63.1,96.2,0.7,96.4,0/12,0/12,0/12,0/12,1/12,Mortality ([3]; 12 g/kg): 4/12; Mortality ([3]; 15 g/kg): 6/12
"CC1(C)O[C@@H]2C[C@H]3[C@@H]4C[C@H](F)C5=CC(=NO)C=C[C@]5(C)[C@@]4(F)[C@@H](O)C[C@]3(C)[C@]2(/C(CO)=N/O)O1 [Example 8, (2S,6aS,6bR,7S,8aS,8bR,11aR,12aS,12bS)-2,6b-difluoro-7-hydroxy-8b-((E)-2-hydroxy-1-(hydroxyimino)ethyl)-6a,8a,10,10-tetramethyl-1,2,6a,6b,7,8,8a,8b,11a,12,12a,12b-dodecahydro-4H-naphtho[2′,1′:4,5]indeno[1,2-d][1,3]dioxol-4-one oxime]",91.8,17.2,32.1,41.2,93.5,26.8,0.33,1.56,0.02,1.49,24.5,46.8,93.2,1.36,93,0/12,0/12,0/12,0/12,0/12,Mortality ([3]; 12 g/kg): 0/12; Mortality ([3]; 15 g/kg): 1/12
